In patent US10968178B2, “IP6K inhibitors” (TAKEDA PHARMACEUTICAL COMPANY LIMITED, priority 2017, dated 2021):

Key:
Assay type in all cases: biochemical
human IP6K1 = molecular target: T1, human IP6K1 (Homo sapiens, UniProt Q92551); experiment: IP6K enzyme inhibitory assay (ADP-Glo Kinase Assay), human IP6K1; conditions: compound concentration 0.1 μM; read-out: ADP-Glo method inhibitory rate (%) human IP6K1
T1 construct: human IP6K1 (1-441) gene; GST; made in house; host or cells: Sf-9 insect cells
In short: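 Inhibition of human IP6K1 was determined with Promega's ADP-Glo Kinase Assay in 384 well plates. Test compound diluted in assay buffer (20 mM HEPES (pH 7.5), 6 mM MgCl2, 0.01% Tween-20, 1 mM DTT) was added at 2 μL, then 2 μL of enzyme started the reaction for 60 min at room temperature. Next came 3 μL ADP-Glo solution for 30 min and 6 μL Kinase-Detection solution for 60 min. Luminescence was read on an Envision plate reader.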

human IP6K2 = molecular target: T2, human IP6K2 (Homo sapiens, UniProt Q9UHH9); experiment: IP6K enzyme inhibitory assay (ADP-Glo Kinase Assay), human IP6K2; conditions: compound concentration 0.1 μM; read-out: ADP-Glo method inhibitory rate (%) human IP6K2
T2 construct: human IP6K2 (1-426) gene; GST; made in house; host or cells: Sf-9 insect cells
T2 sequence (Q9UHH9 1-426): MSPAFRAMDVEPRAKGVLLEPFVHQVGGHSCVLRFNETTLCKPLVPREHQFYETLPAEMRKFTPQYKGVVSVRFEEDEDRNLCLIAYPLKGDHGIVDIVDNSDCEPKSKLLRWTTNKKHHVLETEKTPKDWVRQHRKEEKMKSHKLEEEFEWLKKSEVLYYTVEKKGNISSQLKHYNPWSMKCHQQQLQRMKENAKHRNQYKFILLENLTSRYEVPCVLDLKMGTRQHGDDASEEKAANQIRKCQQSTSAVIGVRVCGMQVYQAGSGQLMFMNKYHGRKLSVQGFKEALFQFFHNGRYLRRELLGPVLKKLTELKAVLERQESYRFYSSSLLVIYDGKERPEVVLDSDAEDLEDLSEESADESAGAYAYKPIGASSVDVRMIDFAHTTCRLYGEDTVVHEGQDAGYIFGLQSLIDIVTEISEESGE
In short: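 The inhibitory activity against human IP6K2 was measured with Promega's ADP-Glo Kinase Assay in 384 well plates. Test compound, diluted in assay buffer (20 mM HEPES (pH 7.5), 6 mM MgCl2, 0.01% Tween-20, 1 mM DTT), was added at 2 μL. Adding 2 μL of diluted enzyme started the reaction, which ran for 60 min at room temperature. Next, 3 μL ADP-Glo solution (30 min) and 6 μL Kinase-Detection solution (60 min) were added, and luminescence was read on an Envision plate reader.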

human IP6K3 = molecular target: T3, human IP6K3 (Homo sapiens, UniProt Q96PC2); experiment: IP6K enzyme inhibitory assay (ADP-Glo Kinase Assay), human IP6K3; conditions: compound concentration 0.1 μM; read-out: ADP-Glo method inhibitory rate (%) human IP6K3
T3 construct: human IP6K3 (1-410) gene; made in house; host or cells: BL21 (DE3) Escherichia coli
T3 sequence (Q96PC2 1-410): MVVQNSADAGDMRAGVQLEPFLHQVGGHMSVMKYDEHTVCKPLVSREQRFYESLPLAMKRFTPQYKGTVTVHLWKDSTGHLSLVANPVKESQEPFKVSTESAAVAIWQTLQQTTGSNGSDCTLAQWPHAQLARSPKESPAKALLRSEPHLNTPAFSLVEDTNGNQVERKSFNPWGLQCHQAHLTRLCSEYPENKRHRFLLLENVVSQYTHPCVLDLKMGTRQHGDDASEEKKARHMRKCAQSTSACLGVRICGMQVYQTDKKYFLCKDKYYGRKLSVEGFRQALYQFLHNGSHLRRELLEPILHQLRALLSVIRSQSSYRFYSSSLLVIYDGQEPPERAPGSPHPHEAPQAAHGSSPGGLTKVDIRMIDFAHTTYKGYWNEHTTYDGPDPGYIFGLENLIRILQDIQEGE
In short: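 Recombinant human IP6K (IP6K3 residues 1-410, E. coli, Ni-NTA purified) incubated with compound in 20 mM HEPES pH 7.5, 6 mM MgCl2, 0.01% Tween-20, 1 mM DTT for 60 min at room temperature. ADP formed read as luminescence by ADP-Glo.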

T1 sequence (Q92551 whole entry): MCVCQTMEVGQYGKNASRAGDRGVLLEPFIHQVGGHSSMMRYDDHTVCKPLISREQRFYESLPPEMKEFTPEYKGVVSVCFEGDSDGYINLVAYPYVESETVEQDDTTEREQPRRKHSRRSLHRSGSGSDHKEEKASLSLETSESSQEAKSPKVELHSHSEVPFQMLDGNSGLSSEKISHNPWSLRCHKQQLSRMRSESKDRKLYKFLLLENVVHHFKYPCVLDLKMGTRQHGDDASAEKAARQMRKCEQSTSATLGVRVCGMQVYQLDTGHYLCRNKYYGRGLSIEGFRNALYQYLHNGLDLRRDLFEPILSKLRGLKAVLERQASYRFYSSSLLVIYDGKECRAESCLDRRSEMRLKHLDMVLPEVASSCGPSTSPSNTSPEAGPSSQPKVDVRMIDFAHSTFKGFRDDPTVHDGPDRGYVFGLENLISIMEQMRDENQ

SMILES | inhibition at 0.1 µM (human IP6K1) [%] | inhibition at 0.1 µM (human IP6K2) [%] | inhibition at 0.1 µM (human IP6K3) [%]
O=C(O)c1ccc2c(c1)[C@]1(CC[C@@H](Oc3ccc(F)cc3F)CC1)C(=O)N2 [Example 57, (1r,4r)-4-(2,4-difluorophenoxy)-2′-oxo-1′,2′-dihydrospiro[cyclohexane-1,3′-indole]-5′-carboxylic acid] | 99 | 97 | 100
Cc1ncccc1O[C@H]1CC[C@@]2(CC1)C(=O)Nc1ccc(C(=O)O)cc12 [Example 32, (1r,4r)-4-((2-methylpyridin-3-yl)oxy)-2′-oxo-1′,2′-dihydrospiro[cyclohexane-1,3′-indole]-5′-carboxylic acid] | 63 | 67 | 88
NC(=O)c1cc(Cl)ccc1O[C@H]1CC[C@@]2(CC1)C(=O)Nc1ccc(C(=O)O)cc12 [Example 8, (1r,4r)-4-(2-carbamoyl-4-chlorophenoxy)-2′-oxo-1′,2′-dihydrospiro[cyclohexane-1,3′-indole]-5′-carboxylic acid] | 100 | 97 | 95
N#Cc1ccc(O[C@H]2CC[C@@]3(CC2)C(=O)Nc2ccc(C(=O)O)cc23)cc1 [Example 45, (1r,4r)-4-(4-cyanophenoxy)-2′-oxo-1′,2′-dihydrospiro[cyclohexane-1,3′-indole]-5′-carboxylic acid] | 96 | 93 | 97
N#Cc1ccccc1O[C@H]1CC[C@@]2(CC1)C(=O)Nc1ccc(C(=O)O)cc12 [Example 44, (1r,4r)-4-(2-cyanophenoxy)-2′-oxo-1′,2′-dihydrospiro[cyclohexane-1,3′-indole]-5′-carboxylic acid] | 88 | 83 | 94
O=C(O)c1ccc2c(c1)[C@]1(CC[C@H](Oc3ccc(Cl)cc3)CC1)C(=O)N2 [Example 108, (1s,4s)-4-(4-chlorophenoxy)-2′-oxo-1′,2′-dihydrospiro[cyclohexane-1,3′-indole]-5′-carboxylic acid] | 97 | 101 | 99
Cc1cccc(O[C@H]2CC[C@@]3(CC2)C(=O)Nc2ccc(C(=O)O)cc23)c1F [Example 53, (1r,4r)-4-(2-fluoro-3-methylphenoxy)-2′-oxo-1′,2′-dihydrospiro[cyclohexane-1,3′-indole]-5′-carboxylic acid] | 96 | 96 | 97
Cc1cccc(O[C@H]2CC[C@@]3(CC2)C(=O)Nc2ccc(C(=O)O)cc23)c1 [Example 42, (1r,4r)-4-(3-methylphenoxy)-2′-oxo-1′,2′-dihydrospiro[cyclohexane-1,3′-indole]-5′-carboxylic acid] | 81 | 90 | 97
Cc1ccc(C(F)(F)F)c(O[C@H]2CC[C@@]3(CC2)C(=O)Nc2ccc(C(=O)O)cc23)n1 [Example 26] | 98 | 97 | 92
N#Cc1cccc(F)c1O[C@H]1CC[C@@]2(CC1)C(=O)Nc1ccc(C(=O)O)cc12 [Example 62, (1r,4r)-4-(2-cyano-6-fluorophenoxy)-2′-oxo-1′,2′-dihydrospiro[cyclohexane-1,3′-indole]-5′-carboxylic acid] | 95 | 91 | 99
O=C(O)c1ccc2c(c1)[C@]1(CC[C@@H](Oc3ccc(Cl)cn3)CC1)C(=O)N2 [Example 11, (1r,4r)-4-((5-chloropyridin-2-yl)oxy)-2′-oxo-1′,2′-dihydrospiro[cyclohexane-1,3′-indole]-5′-carboxylic acid] | 100 | 97 | 102
O=C(O)c1ccc2c(c1)[C@]1(CC[C@@H](Oc3cnc4c(c3)CCCO4)CC1)C(=O)N2 [Example 37, (1r,4r)-4-(3,4-dihydro-2H-pyrano[2,3-b]pyridin-6-yloxy)-2′-oxo-1′,2′-dihydrospiro[cyclohexane-1,3′-indole]-5′-carboxylic acid] | 51 | 50 | 82
O=C(O)c1ccc2c(c1)[C@]1(CC[C@H](Oc3ncc(F)cc3F)CC1)C(=O)N2 [Example 13, (1s,4s)-4-((3,5-difluoropyridin-2-yl)oxy)-2′-oxo-1′,2′-dihydrospiro[cyclohexane-1,3′-indole]-5′-carboxylic acid] | 100 | 97 | 100
Cc1ccc(O[C@H]2CC[C@@]3(CC2)C(=O)Nc2ccc(C(=O)O)cc23)cn1 [Example 34, (1r,4r)-4-((6-methylpyridin-3-yl)oxy)-2′-oxo-1′,2′-dihydrospiro[cyclohexane-1,3′-indole]-5′-carboxylic acid] | 63 | 76 | 91

The remaining lines, values ahead:

inhibition at 0.1 µM (human IP6K1) [%] | inhibition at 0.1 µM (human IP6K2) [%] | inhibition at 0.1 µM (human IP6K3) [%] | SMILES
49 | 47 | 61 | O=C(O)c1ccc2c(n1)[C@]1(CC[C@@H](Oc3ccccc3Cl)CC1)C(=O)N2 [Example 90, (1r,4r)-4-(2-chlorophenoxy)-2′-oxo-1′,2′-dihydrospiro[cyclohexane-1,3′-pyrrolo[3,2-b]pyridine]-5′-carboxylic acid]
76 | 98 | 97 | O=C(O)c1ccc2c(n1)[C@]1(CC[C@H](Oc3ncc(Cl)cc3F)CC1)C(=O)N2 [Example 100, (1s,4s)-4-((5-chloro-3-fluoropyridin-2-yl)oxy)-2′-oxo-1′,2′-dihydrospiro[cyclohexane-1,3′-pyrrolo[3,2-b]pyridine]-5′-carboxylic acid]
80 | 74 | 95 | Cc1nc(O[C@H]2CC[C@@]3(CC2)C(=O)Nc2ccc(C(=O)O)cc23)nc(C)c1Cl [Example 39, (1r,4r)-4-((5-chloro-4,6-dimethylpyrimidin-2-yl)oxy)-2′-oxo-1′,2′-dihydrospiro[cyclohexane-1,3′-indole]-5′-carboxylic acid]
98 | 97 | 96 | Cc1cc(O[C@H]2CC[C@@]3(CC2)C(=O)Nc2ccc(C(=O)O)cc23)ccc1F [Example 51, (1r,4r)-4-(4-fluoro-3-methylphenoxy)-2′-oxo-1′,2′-dihydrospiro[cyclohexane-1,3′-indole]-5′-carboxylic acid]
98 | 99 | 99 | Cc1cc(C(F)(F)F)cnc1O[C@H]1CC[C@]2(CC1)C(=O)Nc1ccc(C(=O)O)nc12 [Example 103, (1s,4s)-4-((3-methyl-5-(trifluoromethyl)pyridin-2-yl)oxy)-2′-oxo-1′,2′-dihydrospiro[cyclohexane-1,3′-pyrrolo[3,2-b]pyridine]-5′-carboxylic acid]
86 | 91 | 97 | Cc1cc(C)cc(O[C@H]2CC[C@@]3(CC2)C(=O)Nc2ccc(C(=O)O)cc23)c1 [Example 48, (1r,4r)-4-(3,5-dimethylphenoxy)-2′-oxo-1′,2′-dihydrospiro[cyclohexane-1,3′-indole]-5′-carboxylic acid]
9 | 14 | 26 | Cc1cc(Cl)cc(C)c1O[C@H]1CC[C@]2(CC1)C(=O)Nc1ccc(C(=O)O)nc12 [Example 89, (1s,4s)-4-(4-chloro-2,6-dimethylphenoxy)-2′-oxo-1′,2′-dihydrospiro[cyclohexane-1,3′-pyrrolo[3,2-b]pyridine]-5′-carboxylic acid]
